Blank lines part the entries; values can stand above or below the molecule they belong to.
Tests used:
Hepatitis B virus [1] = assay: Antiviral activity against HBV transfected Hep G2.2.15 cells assessed as inhibition of e antigen HBsAg secretion; assay type: functional, organism-based; details: HepG2 2.2.15
[2] = Selectivity index, ratio of CC50 for human Hep G2.2.15 cells to IC50 for surface antigen HBsAg secretion in HBV transfected Hep G2.2.15 cells; assay type: functional
Hepatitis B virus [3] = assay: Antiviral activity against HBV transfected Hep G2.2.15 cells assessed as inhibition of surface antigen HBsAg secretion; assay type: functional, organism-based; details: HepG2 2.2.15
[4] = Cytotoxicity against human Hep G2.2.15 cells; assay type: functional; details: HepG2 2.2.15
[5] = Selectivity index, ratio of CC50 for human Hep G2.2.15 cells to IC50 for HBV e antigen secretion in HBV transfected Hep G2.2.15 cells; assay type: functional

SMILES: COc1ccc(C[C@H]2c3cc(O)c(OC)cc3CCN2C)cc1O [(S)-RETICULINE]
IC50 (Hepatitis B virus [1]): > 2990 µM
Ratio CC50/IC50 [2]: <1
IC50 (Hepatitis B virus [3]): 2140 µM
CC50 [4]: 1910 µM
Ratio CC50/IC50 [5]: <1

SMILES: COC1=CC(=O)[C@@]2([C@@H]1O)[C@@H](Cl)C[C@]13NCC[C@]21CC(=O)C(OC)=C3OC [ACUTUMIDINE]
IC50 (Hepatitis B virus [1]): > 2890 µM
Ratio CC50/IC50 [2]: >1.31
IC50 (Hepatitis B virus [3]): 2020 µM
CC50 [4]: > 2890 µM

SMILES: COC1=CC(=O)[C@@]2([C@@H]1O)[C@@H](Cl)C[C@@]13C(OC)=C(OC)C(=O)C[C@@]21CCN3C [ACUTUMINE]
IC50 (Hepatitis B virus [1]): > 2980 µM
IC50 (Hepatitis B virus [3]): > 2990 µM
CC50 [4]: > 2990 µM

SMILES: COC1=CC(=O)[C@]2([C@@H](Cl)C[C@]34NCC[C@]23CC(=O)C(OC)=C4OC)[C@H]1O [DAURICUMIDINE]
IC50 (Hepatitis B virus [1]): > 3850 µM
Ratio CC50/IC50 [2]: 4.13
IC50 (Hepatitis B virus [3]): 450 µM
CC50 [4]: 1860 µM
Ratio CC50/IC50 [5]: <1

SMILES: COC1=CC(=O)[C@]2([C@@H](Cl)C[C@@]34C(OC)=C(OC)C(=O)C[C@@]23CCN4C)[C@H]1O [DAURICUMINE]
IC50 (Hepatitis B virus [1]): > 3290 µM
Ratio CC50/IC50 [2]: 1.67
IC50 (Hepatitis B virus [3]): 1310 µM
CC50 [4]: 2190 µM
Ratio CC50/IC50 [5]: <1

SMILES: COC1=CC(=O)[C@]2(CC[C@@]34C(OC)=C(OC)C(=O)C[C@]32CCN4C)[C@@H]1O [DECHLOROACUTUMINE]
IC50 (Hepatitis B virus [1]): > 2930 µM
IC50 (Hepatitis B virus [3]): > 2930 µM
CC50 [4]: 2930 µM

SMILES: COc1cc2c3c(c1O)C1(C=CC(=O)C=C1)CC3N(C)CC2 (centres undefined) [GLAZIOVINE]
IC50 (Hepatitis B virus [1]): 3690 µM
Ratio CC50/IC50 [2]: <1
IC50 (Hepatitis B virus [3]): 8 µM
CC50 [4]: 7 µM
Ratio CC50/IC50 [5]: <1

SMILES: COc1c(O)cc2c(c1OC)C=[N+](C)CC2 [PHENOLBETAIN]
IC50 (Hepatitis B virus [1]): > 4520 µM
Ratio CC50/IC50 [2]: <1
IC50 (Hepatitis B virus [3]): 2370 µM
CC50 [4]: 2180 µM
Ratio CC50/IC50 [5]: <1

Further lines, with some results ahead:

IC50 (Hepatitis B virus [1]): > 2870 µM
IC50 (Hepatitis B virus [3]): 1420 µM
SMILES: CCN(CC)C1=CC(=O)[C@]2([C@@H](Cl)C[C@@]34C(OC)=C(OC)C(=O)C[C@@]23CCN4C)[C@H]1O [HYPSERPANINE A]
Ratio CC50/IC50 [2]: 1.57
CC50 [4]: 2230 µM
Ratio CC50/IC50 [5]: <1

IC50 (Hepatitis B virus [1]): > 3620 µM
IC50 (Hepatitis B virus [3]): > 3620 µM
SMILES: COc1ccc2c3c1-c1c(ccc(O)c1O)C[C@@H]3[N+](C)(C)CC2 [HYPSERPANINE B]
CC50 [4]: > 3620 µM

IC50 (Hepatitis B virus [1]): 25900 µM
IC50 (Hepatitis B virus [3]): 11700 µM
SMILES: Nc1ccn([C@@H]2CS[C@H](CO)O2)c(=O)n1 [LAMIVUDINE]
Ratio CC50/IC50 [2]: 2.56
CC50 [4]: 30000 µM
Ratio CC50/IC50 [5]: 1.16

IC50 (Hepatitis B virus [1]): > 3680 µM
IC50 (Hepatitis B virus [3]): > 3680 µM
SMILES: COc1cc2c(cc1O)C[C@H]1c3c(cc(OC)c(O)c3-2)CC[N+]1(C)C [LAURIFOLINE]
CC50 [4]: > 3680 µM

IC50 (Hepatitis B virus [1]): > 4110 µM
IC50 (Hepatitis B virus [3]): > 4110 µM
SMILES: COc1ccc2c(c1O)-c1c(O)c(OC)cc3c1[C@H](C2)[N+](C)(C)CC3 [MAGNOFLORINE]
CC50 [4]: > 4110 µM

IC50 (Hepatitis B virus [1]): > 4180 µM
IC50 (Hepatitis B virus [3]): 42 µM
SMILES: COc1cc2c3c(c1OC)C1(C=CC(=O)C=C1)C[C@H]3N(C)CC2 [PRONUCIFERINE]
Ratio CC50/IC50 [2]: 1.19
CC50 [4]: 50 µM
Ratio CC50/IC50 [5]: <1
